Data: US9101640B2, “Use of Danshensu, Notoginsenoside R1 or their combination in preparation of medicaments for preventing and treating diseases caused by microcirculation disorder” (Tasly Pharmaceutical Group Co., Ltd., priority 2009, dated 2015)
“Also recorded” adds a separate entry of the source.

Tests used:
Assay type in all cases: in vivo
[1] = tested on: leukocytes rolling along the mesenteric venular walls; test: Counting of leukocytes rolling along inner walls of venules after I/R; conditions: rat mesenteric I/R
Description: The rats were anesthetized by intraperitoneal injection of pentobarbital sodium (30 mg/kg body weight (BW)). PE venous cannulas (#3) were cannulated into the right jugular of the rats and detained. The abdomen of each rat was incised in a length of 20-30 mm along the midline. The ileum near the ileocecal junctions was gently taken out and unfolded onto the object stage mounted with glass slides. The unfolded mesenteries were continuously dripped with Krebs-Ringer buffering solution at 37° C. The microcirculatory dynamics of the mesenteries was observed under white light (12V, 100 W) using an inverted biomicroscope (Diaphot TMD-2S, Nikon, Tokyo) placed in the thermostat at 37° C. Observation sites were selected under 20× object lens, and a video recording system with a time-displaying function was used to record what had been observed on S-VHS tape and preserved. […] Normal saline was administrated at 20 min before ischemia until the end of the observation by continuously intravenous drip via jugular at a dosage of 5 mg/kg/h. PE cannulas were used to ligate non-circulatory mesenteric arteries and veins, so as to observe the arteries and veins for 10 min, and then the ligation was lifted. Time was adjusted to zero and the microcirculatory dynamics under the same visual field was continuously observed for 60 min.
DLA was administrated at 20 min before ischemia until the end of the observation by continuously intravenous drip via jugular at a dosage of 5 mg/kg/h.
R1 was administrated at 20 min before ischemia until the end of the observation by continuously intravenous drip via jugular at a dosage of 5 mg/kg/h.
The combination of DLA and R1 in a weight ratio of 4:1 was administrated at 20 min before ischemia until the end of the observation by continuously intravenous drip via jugular at a dosage of 5 mg/kg/h.
The combination of DLA and R1 in a weight ratio of 1:1 was administrated at 20 min before ischemia until the end of the observation by continuously intravenous drip via jugular at a dosage of 5 mg/kg/h. […]
(§1) Wherein, 6 rats in each group were taken out, these rats were used for observing the following aspects: the venular diameters; leukocytes rolling, adhesion, and emigration and DHR fluorescence intensities of the venular walls. […]
(§2) Microcirculatory dynamics was continuously recorded using an inverted biomicroscope […] recording system (CC-090, Flovel, Tokyo) and SIT fluorescent camera (C-2400-08, Hamamatsu Photonics, Hamamatsu).
The leukocytes roiling along the inner walls of the venules in a length of 200 μm within 10 s was counted from the replayed images at the following time points: before ischemia, and 1 min, 10 min, 20 min, 30 min, 40 min, 50 min and 60 min after the beginning of the reperfusion.

[2] = tested on: peroxides in the mesenteric venular walls; test: DHR fluorescence intensities of venular walls (production of peroxides) after I/R; conditions: rat mesenteric I/R
Description: The rats were anesthetized by intraperitoneal injection of pentobarbital sodium (30 mg/kg body weight (BW)). PE venous cannulas (#3) were cannulated into the right jugular of the rats and detained. The abdomen of each rat was incised in a length of 20-30 mm along the midline. The ileum near the ileocecal junctions was gently taken out and unfolded onto the object stage mounted with glass slides. The unfolded mesenteries were continuously dripped with Krebs-Ringer buffering solution at 37° C. The microcirculatory dynamics of the mesenteries was observed under white light (12V, 100 W) using an inverted biomicroscope (Diaphot TMD-2S, Nikon, Tokyo) placed in the thermostat at 37° C. Observation sites were selected under 20× object lens, and a video recording system with a time-displaying function was used to record what had been observed on S-VHS tape and preserved. […] PE cannulas were used to ligate non-circulatory mesenteric arteries and veins, so as to observe the arteries and veins for 10 min, and then the ligation was lifted. Time was adjusted to zero and the microcirculatory dynamics under the same visual field was continuously observed for 60 min. […]
DLA was administrated at 10 min after I/R until the end of the observation by continuously intravenous drip via jugular at a dosage of 5 mg/kg/h. […]
as §1, §2
The H2O2-sensitive fluorescent probes DHR ([…]) were continuously dripped onto the surfaces of the rat's mesenteries to be observed. An inverted fluorescence microscope (DM-IRB, Leica, Germany) with an excitation wavelength at 455 nm and a mercury lamp as an excitation source (100 W) was used. The images were recorded with a CD camera at the following time points: before ischemia, and 1 min, 10 min, 20 min, 30 min, 40 min, 50 min and 60 min after the beginning of the reperfusion. The fluorescence intensities of the venular wall and the extravascular interstitial substance were measured with a Image-Pro Plus 5.0 software. The […] value between the fluorescence intensity of the venular wall and that of the extravascular interstitial substance before ischemia was taken as a baseline. The ratio of the changing value at each time point to the baseline were calculated, which was used to indicate the changing rate of the DHR fluorescence intensities of the rat's mesenteric venular walls.

[3] = tested on: mast cells in the mesenteric interstitial substance; test: Percentage of mast cells degranulation after I/R (toluidine blue); conditions: 60 min of reperfusion, rat
[4] = pre-administration, 5 mg/kg/h continuous i.v. drip from 20 min before ischemia, 5 mg/kg
[5] = post-administration, 5 mg/kg/h continuous i.v. drip from 20 min after ischemia (DLA: 10 min after I/R)
[6] = pre-administration, 5 mg/kg/h continuous i.v. drip from 20 min before ischemia

Q: CC(C)=CCC[C@](C)(O[C@@H]1O[C@H](CO)[C@@H](O)[C@H](O)[C@H]1O)[C@H]1CC[C@]2(C)[C@@H]1[C@H](O)C[C@@H]1[C@@]3(C)CC[C@H](O)C(C)(C)[C@@H]3[C@@H](O[C@@H]3O[C@H](CO)[C@@H](O)[C@H](O)[C@H]3O[C@@H]3OC[C@@H](O)[C@H](O)[C@H]3O)C[C@]12C [R1, Notoginsenoside R1] was tested. Which “inhibition of leukocytes rolling along the mesenteric venular walls caused by I/R” value ([1]; post-administration, 5 mg/kg/h continuous i.v. drip from 20 min after ischemia (DLA: 10 min after I/R), 5 mg/kg) did it give?
A: Its value is “had no significant inhibitory effects; also recorded: have no significant inhibitory effects”.

Q: What about the “inhibition of leukocytes rolling along the mesenteric venular walls caused by I/R” value [1, 4] of the same compound?
A: Its value is “had no significant inhibitory effects; also recorded: have no significant inhibitory effects”.

Q: And the “inhibition of the production of peroxides in the mesenteric venular walls after I/R (DHR fluorescence)” value (“inhibition … (DHR fluorescence)” for short) [2, 5]?
A: Its value is “had no significant inhibitory effects; also recorded: has no inhibitory effects”.

Q: And the “inhibition … (DHR fluorescence)” value [2, 6]?
A: The value was “had no significant inhibitory effects; also recorded: has no inhibitory effects”.

Q: And the “inhibition of the increase in the percentage of mast cells degranulation caused by I/R” value [3, 5]?
A: The value was “can significantly inhibit”.

Q: And the “inhibition of the increase in the percentage of mast cells degranulation caused by I/R” value [3, 6]?
A: The value was “can significantly inhibit”.

Q: O=C(O)C(O)Cc1ccc(O)c(O)c1 (stereo not drawn) [DLA, 3,4-dihydroxyphenyl lactic acid] was tested. Which “inhibition of leukocytes rolling along the mesenteric venular walls caused by I/R” value [1, 5] did it give?
A: Its value is “has the same effects as those of the pre-administration”.

Q: What about the “inhibition of leukocytes rolling along the mesenteric venular walls caused by I/R” value [1, 4] of the same compound?
A: The value was “can apparently suppress; also recorded: can inhibit”.

Q: What about the “inhibition … (DHR fluorescence)” value [2, 5] of the same compound?
A: The value was “had significant inhibitory effects; also recorded: has the same effects as those of the pre-administration”.

Q: What about the “inhibition … (DHR fluorescence)” value [2, 6] of the same compound?
A: Its value is “had significant inhibitory effects; also recorded: can inhibit”.

Q: What about the “inhibition of the increase in the percentage of mast cells degranulation caused by I/R” value [3, 5] of the same compound?
A: Its value is “had no significant inhibitory effects; also recorded: without the significant inhibition”.

Q: What about the “inhibition of the increase in the percentage of mast cells degranulation caused by I/R” value [3, 6] of the same compound?
A: Its value is “can significantly inhibit”.
